Data from US9422262B2, “Compounds and methods for treating diseases mediated by protease activated receptors” (The Broad Institute, Inc., priority 2010, dated 2016).
“And” between values parts separate entries of the source, which are not always exact repeats. Equal entries are not always repeated.

Assays:
[1] = target: T1, Par1 (thrombin) receptor (Homo sapiens, UniProt P25116); test: SFLLRN-mediated granule secretion, platelet-rich plasma, luciferin-luciferase ATP readout (primary assay); type: cell-based; conditions: two retests of the probe; platelet-rich plasma; read-out: IC50, SFLLRN-mediated granule secretion
T1 construct: endogenous in cells; host or cells: platelets (platelet-rich plasma; washed platelets from individual donors)
T1 sequence (P25116 22-425): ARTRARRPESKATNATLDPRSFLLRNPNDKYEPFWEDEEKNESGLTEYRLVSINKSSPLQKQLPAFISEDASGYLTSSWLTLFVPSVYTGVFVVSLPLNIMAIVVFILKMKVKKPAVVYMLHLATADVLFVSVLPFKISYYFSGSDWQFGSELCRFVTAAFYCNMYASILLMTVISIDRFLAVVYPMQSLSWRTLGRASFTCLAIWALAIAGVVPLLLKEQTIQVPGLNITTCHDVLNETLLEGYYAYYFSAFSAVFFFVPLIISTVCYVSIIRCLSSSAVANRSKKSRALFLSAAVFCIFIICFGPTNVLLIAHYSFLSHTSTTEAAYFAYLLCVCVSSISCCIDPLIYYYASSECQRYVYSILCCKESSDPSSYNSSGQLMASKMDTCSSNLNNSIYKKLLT
Method: The compounds were tested in two independent IC50 determination experiments using the primary assay measuring SFLLRN-mediated granule secretion. For this assay, platelet-rich plasma is treated with putative inhibitors prior to activation by the SFLLRN peptide, which targets the Par1 (thrombin) receptor. Upon activation, platelets secrete dense granules, which are concentrated with ATP. Platelet activation and possible inhibition are monitored by a luciferin-luciferase assay (CellTiter-Glo without lysis reagent) to measure the ATP secreted from activated platelets. Luminescence measurements are made using a plate reader (Envision, PerkinElmer) capable of detecting luminescence.

[2] = tested on: cAMP production; test: cAMP production in washed platelets (competitive immunoassay); type: cell-based, human; conditions: 10 μM, PGE1 as control
Method: For this assay, platelets obtained from individual donors were washed and incubated with the probe. Platelets exposed to PGE1 (which causes elevation of platelet cAMP levels) are used as controls. Following incubation, platelets are lysed and evaluated in a commercially available competitive immunoassay of cAMP. Compounds that raise cAMP levels less than 50% of that of PGE1 are considered negative in this assay.

[3] = tested on: thrombus formation; test: Thrombus formation following laser-induced injury of the cremaster arteriole in mice; type: in vivo
Excerpt: PAR1 is the thrombin receptor on human platelets and serves an important function in mediating thrombus formation. We tested compound 1 to determine whether it inhibited thrombus formation following laser-induced injury of the cremaster arteriole in mice. The dominant PAR receptor on mouse platelets is PAR4. However, since compound 1 acts at a non-orthosteric site and mouse PAR4 differs from human PAR4, we reasoned that compound 1 may be able to block mouse PAR4. […] When infused into mice at a concentration of 5 mg/kg, compound 1 inhibited platelet accumulation during thrombus formation by >90% (FIG. 4B). Infusion of 5 mg/kg also impaired fibrin generation during thrombus formation (FIG. 4C). Thus, compound 1 blocks both cellular- and coagulation protein-mediated arms of thrombus formation. […] The compound was therefore infused every 30 minutes during the course of these experiments. The short half-life of compound 1 in vivo may be useful in scenarios in which anticoagulation is only required for a short period of time or when anticoagulation needs to be reversed quickly, such as anticoagulation prior to invasive procedures or surgery.
Since there are also situations in which longer term anticoagulation is desired, we performed further studies in the thrombus formation model to assess analogs of compound 1 that may have a more long-lived effect. […] This instability in mouse plasma may have contributed to its short half-life of efficacy in vivo.

[4] = target: T2, PAR1 (Homo sapiens, UniProt P25116); test: Ca2+ flux in HEK293 cells overexpressing recombinant PAR1; type: cell-based; parameters: expressed in transfected cells; host or cells: HEK293; conditions: concentrations similar to those for inhibition of P-selectin expression; FIG. 1B
T2 sequence (P25116 22-425): T1 sequence (P25116 22-425)

For `CCCC(=O)Nc1cccc(NC(=O)c2ccccc2Br)c1` [Compound 1], the IC50 [1] was 4.87 µM and 5.28 µM, the “modulation of cAMP production” value [2] was “inactivity” and the “inhibition of platelet accumulation during thrombus formation” value ([3]; 5 mg/kg infused every 30 minutes, FIG. 4B) was over 90%. For the same molecule, the “fibrin generation during thrombus formation” value ([3]; infusion of 5 mg/kg, FIG. 4C) was “impaired” and the “changes in Ca2+ flux in HEK293 cells overexpressing recombinant PAR1” value [4] was “inhibits”.
